Results as given in US20110151020A1, “ACTIVE SUBSTANCE COMBINATION WITH GEMCITABINE FOR THE TREATMENT OF EPITHELIAL CANCER” (priority 2008, published 2011).
“Also recorded” adds a separate entry of the source. Like-named read-outs stand apart in the source and are kept apart here.

Tests used:
[1] = test system: CD133+ cancer stem cells in tumour cell lines; test: CD133 content by flow cytometry in tumour cell lines after 48 hours of in-vitro treatment; type: cell-based, human
Protocol: As a first step the content of cancer stem cells (measured as “CD 133-content”) in the whole population of tumour cells was measured by flow cytometry (FIGS. 1A-1C).
As a first step the content of cancer stem cells (measured as “CD 133-content”) within the entire tumour cell population was measured by flow cytometry (FIGS. 10A-10C).

pancreatic CSC spheres = test: CSC-enriched tumour sphere assay; type: cell-based, human; conditions: ultra low adhesion 6-well plates
Protocol: First, pancreatic CSC were clonally expanded as CSC-enriched spheres (FIGS. 18C1-18C5). Floating spheres were treated in ultra low adhesion 6-well plates. After completion of the treatment, five randomly selected high-power fields were analyzed.
(§1) Human pancreatic cancer cell line. The highly metastatic human pancreatic cell line L3.6pl was maintained in DMEM medium (Invitrogen, Karlsruhe, Germany) with 12% Fetal Calf Serum (Biochrom, Berlin, Germany), Glutamax (Invitrogen), non-essential amino acids, and vitamins (all from PAN, Aidenbach, Germany) (Hermann et al., 2007, supra). Cultures were kept no longer than 4 weeks after recovery from frozen stocks. CSC spheres were cultured in DMEM-F12 supplemented with B27 (Gibco, Karlsruhe, Germany) and FGF-2 (PeproTech EC, London, United Kingdom) (Hermann et al., 2007, supra).

CSC population = conditions: fraction of original population remaining; cited from earlier work
[2] = test system: L3.6pl pancreatic cancer cells; test: Tumorigenicity after in vitro pre-treatment and orthotopic implantation; type: in vivo, mice
Protocol: After 96 hours of pretreatment, the remaining viable cells were orthotopically implanted into the pancreas of mice, which received no further treatment in vivo.
Cultivated pancreatic cancer cells were exposed to either Gemcitabine alone representing clinical standard therapy, SB431542 alone, or a combination of Gemcitabine and SB431542 in the above given respective concentrations. After 96 hours of pretreatment, the remaining viable cells were orthotopically implanted into the pancreas of mice, which received no further treatment in vivo.
A prerequisite of CSC is their ability to form tumours in secondary recipients. Due to the limited number of cancer (stem) cells that can be obtained from primary tissues, it is virtually impossible to reproducibly perform in vivo treatment experiments with fresh patient-derived cells. Therefore, all subsequent in vivo experiments were performed with the established L3.6pl pancreatic cancer cells. The design of the experiment is illustrated in FIG. 20A. […] After 4 days of pretreatment, the surviving cells were orthotopically implanted into the pancreas, which received no further in vivo treatment. Tumorigenicity was first determined by PET scans on day 30 (FIGS. 20B, 20C; left panel) and by final macroscopic and microscopic histological evaluation on day 35 (FIGS. 20B, 20C; right panel).
Animals and Orthotopic Implantation of Tumour Cells. Single-cell suspensions were orthotopically implanted into the pancreas of female NMRI nu/nu mice (Janvier, Le Genest-Saint-Isle, France) (Hermann et al., 2007, supra). Size and weight of the pancreatic tumours were monitored.
(§2) In vitro treatment of pancreatic cancer cells. […] For the evaluation of the in vivo tumorigenicity, […] L3.6pl cells were pretreated with the respective regimen and the remaining viable cells were orthotopically implanted into the pancreas of nude mice and evaluated on day 35. For the systemic infusion assay, cells were labelled with the Qtracker 800 labelling kit (Invitrogen) according to the manufacturer's instructions, and 5×10^5 cells were injected intravenously into mice. After 4 weeks, explanted lungs were scanned for metastases with a near-infrared imaging platform (Odyssey, Li-cor, Lincoln, Nebr.). Positive signals were verified by histology (H&E staining).

[3] = test system: CD133+ pancreatic cancer stem cells (L3.6pl cells); test: CD133 content by flow cytometry in L3.6pl pancreatic cancer cells; type: cell-based, human; conditions: for CD133 content of L3.6pl cells: Example 4.2, inhibitor alone or with Gemcitabine
Protocol: In this experiment, potentially effective substances for the targeted elimination of CD133^+ pancreatic cancer stem cells (CSC) were screened by means of flow cytometry following 48 hours of therapy. […] As a Gemcitabine concentration of 100 ng/ml was the lowest concentration capable of achieving a strong relative enrichment for CD133^+ cells through depletion of CD133^− cells, this concentration was chosen for subsequent experiments.
as §1
Cytometry. Pancreatic CSC were identified by CD133/1-APC or CD133-PE (Miltenyi, Bergisch-Gladbach, Germany) (Hermann et al., 2007, supra). Side population experiments were performed as described by Goodell et al. (1996) (see Goodell et al., 1996, J Exp Med 183, 1797-1806) and cells were identified by exclusion of the vital dye Hoechst 33342. To detect activation of the PI3K/Akt/mTOR pathway by means of the phosphorylation status of the s6 ribosomal protein (s6rp), cells cultivated with standard medium were stained with a rabbit anti-phospho-S6 ribosomal protein antibody (Cell Signalling Technology, Danvers, Mass.).
as §2
(§3) Using SB431542, a specific inhibitor of the receptors for Nodal and Activin, ALK-4 and -7 respectively, it was investigated whether the content of the CD133(+) population is affected by inhibition of Activin/Nodal signaling. As mutations affecting the TGF-superfamily pathway are very common in pancreatic neoplasms, pancreatic cell lines harboring different mutations in this pathway were screened (Table 1).

[4] = test system: primary human pancreatic cancer tissue; test: In vivo treatment of implanted patient pancreatic tumor tissue with gemcitabine plus SB431542; parameters: species or system mice; conditions: mouse, in vivo
Protocol: FIG. 33: In vivo treatment with the Alk4/7 inhibitor SB431542. This illustrates Nodal/Activin inhibition to eliminate primary human pancreatic CSC in vivo. Tumor tissue from patient with pancreatic cancer was implanted into immunocompromised mice. Treatment was started on day 7 after implantation. Mice were randomized to gemcitabine alone or gemcitabine plus SB431542. Tumor growth was assessed on day 28.

MiaPaca cells = test: CD133 content by flow cytometry in MiaPaCa cells; type: cell-based, human
Excerpt: as §3, with “1). […] Without being bound thereto, this indicates a Nodal/[…] mediated pathway being independent from SMAD4 as an underlying mechanism.” for “1).”

[5] = test system: primary human pancreatic cancer cells; test: Sphere formation in primary human pancreatic cancer cells; type: cell-based
BxPC3 cells = test: CD133 content by flow cytometry in BxPC3 cells; type: cell-based, human
Excerpt: as §3, with “1). […] Without being bound thereto, this indicates a Nodal/[…] mediated pathway being independent from SMAD4 as an underlying mechanism.” for “1).”

CD133-positive cells = test: Cell cycle / apoptosis of CD133-positive cells (BrDU flow kit); type: cell-based
Excerpt: As the precise fate of CD133-positive cells during treatment with antagonists of Activin or Nodal was to be assessed, the cell cycle of these cells was investigated using a BrDU flow kit (see FIGS. 26A-26G).

Alk4/7 = test: Smad2 phosphorylation after recombinant Nodal; type: cell-based
[6] = test system: sphere derived cells (185s); test: Soft agar colony formation assay; type: cell-based; conditions: soft agar assay 14d
Excerpt: FIGS. 31A-D: show a Gain of function by Nodal stimulation—Sphere derived cells (185s) bear a higher colony forming capacity as compared to adherent cells (185) as evidence for an enrichment in cancer stem cells (in a soft agar assay 14d).

CD133 positive CSC = test: CD133 positive population after extracellular antagonists of Nodal and Activin A; type: cell-based
Excerpt: Furthermore, cells in culture were subjected to extracellular antagonists of Nodal (Lefty) and Activin A (Follistatin) to see whether both components are functionally relevant for the maintenance of the CD133 positive CSC compartment.

[7] = 5 μM SB431542, 100 ng/ml Gemcitabine, ALK5 inhibitor SB-505124

In the case of `CC1=C2C[C@H]3[C@@H](CC=C4C[C@@H](O)CC[C@@]43C)[C@@H]2CC[C@]12O[C@@H]1C[C@H](C)CN[C@H]1[C@H]2C` [Cyclopamine, 11-deoxojervine], the “content of cancer stem cells (CD 133-content)” value (“content of cancer stem cells” below) ([1]; 100 ng/ml Gemcitabine, 100 ng/ml Rapamycin, 10 μM Cyclopamine, separately or triple combination) is given as “None of the investigated molecules (Gemcitabine, Rapamycin and Cyclopamine) was capable of significantly reducing”, the “tumour spheres / CD133+ cells in CSC-enriched spheres” value (pancreatic CSC spheres) is given as “reduction of tumour spheres” and the “reduction of the original CSC population (aldehyde dehydrogenase marker)” value (CSC population) is given as “⅓”. For the same molecule, the “tumour take rate / tumorigenicity” value ([2]; 4 days of pretreatment, PET day 30, histology day 35) was “neither Cyclopamine nor Rapamycin monotherapy significantly affected tumour take rates”, the “CD133+ cell content” value ([3]; 48 hours of therapy, Gemcitabine 100 ng/ml) was “moderate, albeit significant decrease” and the CD133 content ([3]; inhibitor alone, CUR199691 10 μM) was 55%.

With `NC(=O)c1ccc(-c2nc(-c3ccc4c(c3)OCO4)c(-c3ccccn3)[nH]2)cc1` [SB431542] the “content of cancer stem cells” value [1, 7] was “significant reduction”, the body weight [4] was “lack of change” and the severe side effects [4] was “did not result in severe side effects”. For the same molecule, the “white blood cell counts (WBC)” value [4] was “lack of change”, the “CD133(+) sub-population of MiaPaca cells” value (MiaPaca cells) was “decrease” and the “cell viability (dapi staining)” value [5] was “did not affect cell viability”. The sphere formation [5] was “in a dose-dependent manner reduced sphere formation”, the “CD133 content of BxPC3 cells” value (BxPC3 cells) was “no response” and the “induction of apoptosis in CD133-positive cells” value (CD133-positive cells) was “modest induction of apoptosis”. The “tumorigenicity after in vitro pre-treatment” value ([2]; 96 hours pretreatment, 100 ng/ml Gemcitabine, 5 μM SB431542) was “close to no effect; also recorded: did not affect the tumorigenicity”, the “phosphorylation of Smad2 (pSmad2)” value (Alk4/7) was “abrogated this increase in pSmad2” and the “CD133 content 24 hours after withdrawal of therapy” value ([3]; 24 hours after withdrawal) was “already started to approach control level”. For the same molecule, the “CD133 content 48 h after withdrawal of therapy” value ([3]; 48 h after withdrawal) was “enrichment for CD133 compared to base level” and the “CD133 content of L3.6pl cells” value [3] was “decrease; also recorded: drastically reduced”.

In the case of `Cc1cccc(-c2[nH]c(C(C)(C)C)nc2-c2ccc3c(c2)OCO3)n1` [SB505124], the “content of cancer stem cells” value [1, 7] is reported as “did not lead to significant reduction” and the “CD133 content of L3.6pl cells” value [3] is reported as “neither alone nor in combination with Gemcitabine an effect”.

B1: recombinant Nodal: recombinant Nodal, member of the TGF-β superfamily, used as stimulus (protein, UniProt Q96S42 238-347, looked up)
Nodal homolog: HHLPDRSQLCRKVKFQVDFNLIGWGSWIIYPKQYNAYRCEGECPNPVGEEFHPTNHAYIQSLLKRYQPHRVPSTCCAPVKTKPLSMLYVDNGRVLLDHHKDMIVEECGCL
In the case of B1, the colony formation [6] is reported as “further increase in colony formation” and the “phosphorylation of Smad2 (pSmad2)” value (Alk4/7) is reported as “increased phosphorylation of downstream Smad2”.

B2: Folistatin: single chain glycoprotein, inhibitor of Activin signaling (protein, UniProt P19883 30-344, looked up)
Follistatin: GNCWLRQAKNGRCQVLYKTELSKEECCSTGRLSTSWTEEDVNDNTLFKWMIFNGGAPNCIPCKETCENVDCGPGKKCRMNKKNKPRCVCAPDCSNITWKGPVCGLDGKTYRNECALLKARCKEQPELEVQYQGRCKKTCRDVFCPGSSTCVVDQTNNAYCVTCNRICPEPASSEQYLCGNDGVTYSSACHLRKATCLLGRSIGLAYEGKCIKAKSCEDIQCTGGKKCLWDFKVGRGRCSLCDELCPDSKSDEPVCASDNATYASECAMKEAACSSGVLLEVKHSGSCNSISEDTEEEEEDEDQDYSFPISSILEW
For B2, the “CD133 positive CSC population” value (CD133 positive CSC) was “reduction of CD133 positive CSC that was similar to the reduction seen for Lefty” and the “CD133 positive CSC population” value (CD133 positive CSC; listed as folistatin) was “reduction of CD133 positive cancer stem cells”.
